Test [1] concerns C9 colon tumor. Briefly: C9 colon tumor recurrence xenograft model. The conditions noted are these: treatment from 2 days after injection; antibody 10 mg/kg twice a week, irinotecan […] once a week, intraperitoneally; FIG. 4. It counts as in vivo, NOD/SCID mice. As for the experimental part:
Starting 2 days after injection, mice were treated with irinotecan alone (Δ) or anti-human DLL4 antibody (21M18 […]) plus irinotecan (▾). Treatment in both groups was discontinued on the indicated day and tumor growth was monitored for an additional period of time. […] Both antibodies and chemotherapeutic agents were administered intraperitoneally. Tumor growth was measured with electronic calipers at the indicated time points.

Test [2] deals with PN8 pancreatic tumor. Briefly: PN8 pancreatic tumor recurrence xenograft model after gemcitabine. It counts as in vivo, NOD/SCID mice. As to conditions: after gemcitabine 100 mg/kg once a week for 4 weeks; antibodies 10 mg/kg once a week from day 53; vs control antibody; FIG. 5. The protocol:
The PN8 pancreatic tumor was determined to have a K-ras mutation, a glycine to aspartic acid mutation at codon 12, that is a known activating mutation. Anti-DLL4 antibodies were tested for efficacy in this xenograft tumor model. Dissociated PN8 pancreatic tumor cells (10,000 cells) were injected subcutaneously into the flanks of 6-8 week old NOD/SCID mice. Tumors were allowed to grow for 28 days until they reached an average volume of 173 mm^3. […] On day 53, the gemcitabine treatments were stopped and antibody treatments initiated. Mice were treated with control antibody ([…]), anti-mouse DLL4 antibody (21R30) (▾), anti-human DLL4 antibody (21M18 H7L2) (▴), or a combination of anti-mouse DLL4 antibody and anti-human DLL4 antibody (21R30+21M18 H7L2) (□). […] Both antibodies and chemotherapeutic agents were administered intraperitoneally. Tumor growth was measured with electronic calipers at the indicated time points.

As to `CCc1c2c(nc3ccc(OC(=O)N4CCC(N5CCCCC5)CC4)cc13)-c1cc3c(c(=O)n1C2)COC(=O)[C@]3(O)CC` [Irinotecan, irinotecan], in test [1], the “tumor growth after cessation of treatment” value was “tumor growth progressed”.

B1: 21M18 H7L2: humanized form of the murine 21M18 antibody; anti-human DLL4 antibody (antibody, V domains shown)
VH: QVQLVQSGAEVKKPGASVKISCKASGYSFTAYYIHWVKQAPGQGLEWIGYISSYNGATNYNQKFKGRVTFTTDTSTSTAYMELRSLRSDDTAVYYCARDYDYDVGMDYWGQGTLVTVSS
VL: DIVMTQSPDSLAVSLGERATISCRASESVDNYGISFMKWFQQKPGQPPKLLIYAASNQGSGVPDRFSGSGSGTDFTLTISSLQAEDVAVYYCQQSKEVPWTFGGGTKVEIK
Regarding B1, the “tumor recurrence after chemotherapy” value in test [2] is “more substantial effect in inhibiting and/or delaying tumor re-growth”.

(Values after patent publication US20160243223A1, “METHODS FOR TREATING CANCERS COMPRISING K-RAS MUTATIONS” (OncoMed Pharmaceuticals, Inc., priority 2009, published 2016).)
